Reference: US20030129189A1, “Tumor necrosis factor-gamma” (priority 1994, published 2003)

Columns and labels:
293 = assay: TNF-gamma activity on 293 cells; type: cell-based; parameters: key: The numbers of “+” indicate the relative level of activities.; ++: The numbers of “+” indicate the relative level of activities.; +++: The numbers of “+” indicate the relative level of activities.; “−” indicates no detected activity at the concentration range tested; conditions: 293, human embryonal kidney
NF-kappaB in U937 cells = assay: NF-kappaB-SEAP reporter assay; type: cell-based; conditions: 72 hr
Procedure: [Bovine pulmonary artery endothelial cells were incubated with various concentrations of TNF-gamma for 48 hours. The apoptosis was assessed by nuclear staining with Hoechst 33342 fluorescence dye (10 mg/ml).] […] [U937 cells were transfected using lipofectamine (following manufacturer's instruction) with 0.2 mg of reporter plasmid (NF-kappaB-SEAP). The transfected U937 cells were collected and added to the 96-well plate ([…]/well) with various concentrated of TNF-gamma. After Incubation at 37° C. for 72 hr, the NF-kappaB activity was measured with luminometer at absorbance of 450 nm.]
Consistent with the Northern blot analysis, peripheral blood mononuclear cells (PBMC) and human umbilical vein endothelial cells (HUVEC) express TNF-gamma on the cell surface by immunostaining with antibody to TNF-gamma. […] The cells were incubated for 30 min at 40° C. with antibody (10 mg/ml ) to TNF-gamma to detected expression of TNF-gamma on cell surface, with DR3-Fc or LTbR-Fc (10 mg/ml) for receptor and ligand binding in the binding buffer (HBSS containing 10% BSA, 20 mM HEPES, pH 7.2, 0.02% NaN3). […] Fluorescence was analyzed by a FACscan flow cytometer (Becton Dickinson, Mountain View, Calif.).] […] After incubation at 37° C. for 72 hr, the NF-kB activity was measured with luminometer at absorbance of 450 nm.] […]

A-431 = assay: TNF-gamma activity on A-431 cells; type: cell-based; parameters: key: The numbers of “+” indicate the relative level of activities.; ++: The numbers of “+” indicate the relative level of activities.; +++: The numbers of “+” indicate the relative level of activities.; “−” indicates no detected activity at the concentration range tested; conditions: A-431, human epidermoid carcinoma
WEHI 164 = assay: TNF-gamma activity on WEHI 164 cells (MTS cytotoxicity/proliferation, morphology); type: cell-based, mouse; parameters: key to Proliferation / Differentiation / Adhesion: The numbers of “+” indicate the relative level of activities.; ++: The numbers of “+” indicate the relative level of activities.; +++: The numbers of “+” indicate the relative level of activities.; “−” indicates no detected activity at the concentration range tested
Procedure: The adherent target cells were prepared from confluent cultures by trypsinization in PBS, and non-adherent target cells were harvested from stationary cultures and washed once with medium. Target cells were suspended at 3×10^5 cells/ml in medium containing 10% FCS. 0.1 ml aliquots were dispensed into 96-well flat-bottomed microtiter plates containing 0.1 ml serially diluted test samples of cells (WEHI 164 and L929). Incubation was continued for 70 hours. TNF-alpha, TNF-beta and bacterially-produced TNF-gamma were added at a 0.5 μg/ml concentration. The cytotoxicity and proliferation activity was quantified using an MTS assay performed by the addition of 20 μl of MTS and phenazine methosulfate (PMS) solution to each well. After a three hour incubation, the OD at 492 nm was measured by an ELISA plate reader. The OD492 is proportional to the number of viable cells in the wells. The percent of cytotoxicity was calculated as follows: […]. The photographs were taken after 72 hours.
In the graph of FIG. 7B, the assay was performed as described above, however, increasing amounts of TNF-alpha, TNF-beta and TNF-gamma were added to the cultures.

[1] = test system: c-Jun kinase (JNK) in U-937 cells; assay: JNK kinase activation assay; type: cell-based; conditions: 0.1 to 3.0 μg/ml
Procedure: The cellular kinase designated c-Jun kinase (JNK) is an early event in cellular activation. The activation of JNK by TNF-gamma was analyzed as an additional method of determining cellular reaction to treatment with TNF-gamma. The JNK kinase activation assay is well-known by one of skill in the art and has been described by Derijard and colleagues (Cell 76:1025-1029 (1994)). After treatment of U-937 cells with 0.1 to 3.0 μg/ml of TNF-gamma for 12 hours, the cells were harvested and assayed for JNK kinase activity. By 6 and 12 hours, JNK activity had increased 2- and 3.6-fold, respectively.

I-kappaBa in U-937 cells = assay: I-kappaBa degradation (Western blot); type: cell-based; conditions: 0.1-1.0 μg/ml, 12 hours
Procedure: These experiments were elaborated by determining a degradation profile for I-kappaBa in U-937 cells in response to treatment with TNF-gamma. A time course of I-kappaBa degradation was determined by Western blot analysis, a technique that is well-known by one of ordinary skill in the art and has been described by Singh and Aggarwal (J. Biol. Chem. 270:24995-25000 (1995)).

TNF-gamma: new member of the tumor necrosis factor family; the term refers to TNF-gamma-alpha and/or TNF-gamma-beta
Adhesion 293: −− | Differentiation 293: −− | Proliferation 293: ++ | NF-kappaB activation (NF-kappaB in U937 cells): induces nuclear factor-kappaB (NF-kappaB) | Adhesion (A-431): −− | Differentiation (A-431): −− | Proliferation (A-431): − | inhibition of WEHI 164 cell growth (WEHI 164; MTS assay, increasing amounts added (FIG. 7B)): dose-dependent inhibitor of the growth | morphology change (killed cells) (WEHI 164; WEHI 164, 0.5 μg/ml, photographs after 72 hours (FIG. 7A)): induced a morphology change which appeared as dark round cells (indicating killed cells) | Adhesion (WEHI 164; WEHI 164, mouse fibrosarcoma): −− | Differentiation (WEHI 164; WEHI 164, mouse fibrosarcoma): −− | Proliferation (WEHI 164; WEHI 164, mouse fibrosarcoma): − | increase in JNK activity ([1]; by 6 hours): 2 fold | increase in JNK activity ([1]; by 12 hours): 3.6 fold | I-kappaBa degradation (I-kappaBa in U-937 cells): completely degraded
